The text below walks through data of patent US10316017B2, “COT modulators and methods of use thereof” (Gilead Sciences, Inc., priority 2015, dated 2019).

Where only a bound is given, the exact number is not on record here.

In general, IC50 refers to the point on the concentration scale where inhibition reaches its midpoint.

T1 sequence (P41279 30-397): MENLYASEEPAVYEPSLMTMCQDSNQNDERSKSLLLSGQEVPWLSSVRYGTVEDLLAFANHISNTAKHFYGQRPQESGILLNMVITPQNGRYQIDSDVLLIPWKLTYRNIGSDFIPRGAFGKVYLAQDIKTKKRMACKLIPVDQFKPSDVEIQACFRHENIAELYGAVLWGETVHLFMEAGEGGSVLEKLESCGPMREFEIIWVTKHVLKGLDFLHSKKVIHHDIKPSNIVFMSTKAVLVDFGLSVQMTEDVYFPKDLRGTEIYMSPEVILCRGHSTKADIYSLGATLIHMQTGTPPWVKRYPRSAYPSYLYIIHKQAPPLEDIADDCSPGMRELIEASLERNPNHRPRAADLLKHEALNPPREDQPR

The test addresses T1, human Cot catalytic domain (30-397 amino acids) (Homo sapiens, UniProt P41279).
T1 construct: Purified recombinant human Cot catalytic domain (30-397 amino acids) was purchased from Cama Biosciences; purchased Cama Biosciences (so in the source)
Kind of test: High Throughput Cot Biochemical Assay (KinEASE TR-FRET). The settings on record: Cot KinEASE TR-FRET, 400 μM ATP; read-out: IC50 HTRF. How it is done: Example 61: High Throughput Cot Biochemical Assay
In this assay, Cot-catalyzes the phosphorylation of a XL665-labeled peptide substrate. Europium conjugated phospho-tyrosine specific antibody binds the resulting phosphorylated peptide. […] Purified recombinant human Cot catalytic domain (30-397 amino acids) was purchased from Cama Biosciences. […] The standard 5 μL reaction mixture contained 400 μM ATP, 1 μM STK3 peptide, 5 nM of Cot in reaction buffer (10 mM MOPS, pH 7.0, 0.02% NaN3, 0.5 mg/mL BSA, 10 mM MgOAc, 1 mM DTT, 0.025% NP-40, 1.5% glycerol) and 0.1% DMSO.
(In general: Time-resolved FRET reads energy transfer from a long-lived donor to a nearby acceptor.)
In the case of `CCN1CC[C@@H](n2cc(C(Nc3cc(Cl)c4ncc(C#N)c(Nc5ccc(F)c(Cl)c5)c4c3)c3ccc(Cl)cc3)nn2)C1` (stereo partly drawn) [Example 868, 8-chloro-4-((3-chloro-4-fluorophenyl)amino)-6-(((4-chlorophenyl)(1-((R)-1-ethylpyrrolidin-3-yl)-1H-1,2,3-triazol-4-yl)methyl)amino)quinoline-3-carbonitrile], the IC50 was 0.119 µM. As for `CC(C)(C)N1CCC(n2cc([C@@H](Nc3cc(Cl)c4ncc(C#N)c(Nc5ccn(CC(F)(F)F)n5)c4c3)c3ccc(Cl)cc3)nn2)CC1` [Example 752, (S)-6-(((1-(1-(tert-butyl)piperidin-4-yl)-1H-1,2,3-triazol-4-yl)(4-chlorophenyl)methyl)amino)-8-chloro-4-((1-(2,2,2-trifluoroethyl)-1H-pyrazol-3-yl)amino)quinoline-3-carbonitrile], the IC50 was greater than 10 µM. Take `N#Cc1cnc2c(Cl)cc(NC(c3ccc(F)cc3)c3cocn3)cc2c1Nc1ccc(F)c(Cl)c1` (centres unmarked) [Example 807, 8-chloro-4-((3-chloro-4-fluorophenyl)amino)-6-(((4-fluorophenyl)(oxazol-4-yl)methyl)amino)quinoline-3-carbonitrile]: the IC50 was determined as 0.437 µM. For the molecule `CCN1CCC(n2cc([C@H](Nc3cc(Cl)c4ncc(C#N)c(Nc5ccc(F)c(Cl)c5)c4c3)c3ccc(Cl)cc3)nn2)CC1` [Example 856, (R)-8-chloro-4-((3-chloro-4-fluorophenyl)amino)-6-(((4-chlorophenyl)(1-(1-ethylpiperidin-4-yl)-1H-1,2,3-triazol-4-yl)methyl)amino)quinoline-3-carbonitrile], the IC50 is 0.86 µM. As for `CC(C)(C)n1cc([C@@H](Nc2cc(Cl)c3ncc(C#N)c(Nc4ccc(F)c(Cl)c4)c3c2)c2ccc(F)cc2)nn1` [Example 811, (S)-6-(((1-(tert-butyl)-1H-1,2,3-triazol-4-yl)(4-fluorophenyl)methyl)amino)-8-chloro-4-((3-chloro-4-fluorophenyl)amino)quinoline-3-carbonitrile], the figure is 0.034 µM; as for `N#Cc1cnc2c(Cl)cc(NC(c3ccc(F)cc3)c3cn(C4CCNC4)nn3)cc2c1Nc1ccc(F)c(Cl)c1` (stereo in doubt) [Example 873, 8-chloro-4-((3-chloro-4-fluorophenyl)amino)-6-(((4-fluorophenyl)(1-((S)-pyrrolidin-3-yl)-1H-1,2,3-triazol-4-yl)methyl)amino)quinoline-3-carbonitrile], 0.021 µM; as for `N#Cc1cnc2c(Cl)cc(N[C@@H](c3ccc(F)cc3)c3cn(C4CCN(CC(F)F)CC4)nn3)cc2c1Nc1ccc(F)c(Cl)c1` [Example 823, (S)-8-chloro-4-((3-chloro-4-fluorophenyl)amino)-6-(((1-(1-(2,2-difluoroethyl)piperidin-4-yl)-1H-1,2,3-triazol-4-yl)(4-fluorophenyl)methyl)amino) quinoline-3-carbonitrile], 0.097 µM. With `N#Cc1cnc2c(Cl)cc(N[C@@H](c3ccc(F)cc3)c3cn(C4CCN(C5CC(F)(F)C5)CC4)nn3)cc2c1Nc1ccc(F)c(Cl)c1` [Example 822, (S)-8-chloro-4-((3-chloro-4-fluorophenyl)amino)-6-(((1-(1-(3,3-difluorocyclobutyl)piperidin-4-yl)-1H-1,2,3-triazol-4-yl)(4-fluorophenyl)methyl)amino) quinoline-3-carbonitrile], the IC50 came to 0.09 µM. In the case of `CCN1CCC(n2cc(C(Nc3cc(Cl)c4ncc(C#N)c(Nc5ccc(F)c(Cl)c5)c4c3)c3ccc(F)cc3)nn2)CC1(C)C` (centres unmarked) [Example 838, 8-chloro-4-((3-chloro-4-fluorophenyl)amino)-6-(((1-(1-ethyl-2,2-dimethylpiperidin-4-yl)-1H-1,2,3-triazol-4-yl)(4-fluorophenyl)methyl)amino) quinoline-3-carbonitrile], the IC50 is 0.032 µM. Regarding `N#Cc1cnc2c(Cl)cc(NC(c3ccc(Cl)c(Cl)c3)c3cn(C4CCN(C(=O)OCc5ccccc5)CC4)nn3)cc2c1Nc1ccc(F)c(Cl)c1` (centres unmarked) [Example 909, benzyl 4-(4-(((8-chloro-4-((3-chloro-4-fluorophenyl)amino)-3-cyanoquinolin-6-yl)amino)(3,4-dichlorophenyl)methyl)-1H-1,2,3-triazol-1-yl)piperidine-1-carboxylate], the half-inhibitory concentration (IC50) was greater than 1 µM. For the molecule `N#Cc1cnc2c(Cl)cc(NC(c3ccc(Cl)cc3)c3cn(C4CCNCC4)nn3)cc2c1Nc1ccc(F)c(Cl)c1` (centres unmarked) [Example 914, 8-chloro-4-((3-chloro-4-fluorophenyl)amino)-6-(((4-chlorophenyl)(1-(piperidin-4-yl)-1H-1,2,3-triazol-4-yl)methyl)amino)quinoline-3-carbonitrile], the IC50 stood at 0.023 µM.

As to `COc1cc2ncc(C#N)c(Nc3ccc(F)c(Cl)c3)c2cc1N[C@@H](c1ccc(Cl)cc1)c1cn(C2CCN(C(C)(C)C)CC2)nn1` [Example 769, (S)-6-(((1-(1-(tert-butyl)piperidin-4-yl)-1H-1,2,3-triazol-4-yl)(4-chlorophenyl)methyl)amino)-4-((3-chloro-4-fluorophenyl)amino)-7-methoxyquinoline-3-carbonitrile], the IC50 was greater than 10 µM. For `CCN1CC[C@H](n2cc(C(Nc3cc(Cl)c4ncc(C#N)c(Nc5ccc(F)c(Cl)c5)c4c3)c3ccc(Cl)cc3)nn2)C1` (stereo partly drawn) [Example 879, 8-chloro-4-((3-chloro-4-fluorophenyl)amino)-6-(((4-chlorophenyl)(1-((S)-1-ethylpyrrolidin-3-yl)-1H-1,2,3-triazol-4-yl)methyl)amino)quinoline-3-carbonitrile] the value was 0.101 µM. With `N#Cc1cnc2c(Cl)cc(NC(c3cc(F)c(F)c(F)c3)c3cn(C4CCN(C(=O)OCc5ccccc5)CC4)nn3)cc2c1Nc1ccc(F)c(Cl)c1` (centres unmarked) [Example 890, benzyl 4-(4-(((8-chloro-4-((3-chloro-4-fluorophenyl)amino)-3-cyanoquinolin-6-yl)amino)(3,4,5-trifluorophenyl)methyl)-1H-1,2,3-triazol-1-yl)piperidine-1-carboxylate], the IC50 is greater than 10 µM.

`CCN1CCC(n2cc(C(Nc3cc(Cl)c4ncc(C#N)c(Nc5ccc(F)c(Cl)c5)c4c3)c3ccccc3)nn2)CC1` (centres unmarked) [Example 922, 8-chloro-4-((3-chloro-4-fluorophenyl)amino)-6-(((1-(1-ethylpiperidin-4-yl)-1H-1,2,3-triazol-4-yl)(phenyl)methyl)amino) quinoline-3-carbonitrile]: the IC50 is 0.004 µM. On to `N#Cc1cnc2c(Cl)cc(NC(c3cc(F)c(F)c(F)c3)c3cn(C4CCNCC4)nn3)cc2c1Nc1ccc(F)c(Cl)c1` (centres unmarked) [Example 875, 8-chloro-4-((3-chloro-4-fluorophenyl)amino)-6-(((1-(piperidin-4-yl)-1H-1,2,3-triazol-4-yl)(3,4,5-trifluorophenyl)methyl)amino) quinoline-3-carbonitrile], for which the IC50 was 0.066 µM. For `Cc1ccc(C(Nc2cc(Cl)c3ncc(C#N)c(Nc4ccc(F)c(Cl)c4)c3c2)c2cn(C3CCN(C(=O)OCc4ccccc4)CC3)nn2)cc1` (centres unmarked) [Example 915, benzyl 4-(4-(((8-chloro-4-((3-chloro-4-fluorophenyl)amino)-3-cyanoquinolin-6-yl)aminoXp-tolyl)methyl)-1H-1,2,3-triazol-1-yl)piperidine-1-carboxylate], the 50% inhibitory concentration (IC50) was greater than 1 µM.
